Reference: patent US20230381174A1, “THIONOESTER-DERIVATIVE OF RABEXIMOD FOR THE TREATMENT OF INFLAMMATORY AND AUTOIMMUNE DISORDERS” (Vironova Thionationl AB, priority 2020, published 2023)

How the values were obtained:
IL-1β = experiment: LPS assay: IL-1β release in whole blood; assay type: cell-based, human; settings: LPS 500 ng/ml
Description: (§1) Inflammation can be induced in vitro by stimulation with LPS, manifested by the release of various cytokines. […] TNF-α, IL1β and IL-6 are important cytokines in the pathogenesis of RA and MS and therefore selected in this assay.
(§2) Whole blood was collected from an adult volunteer in Heparin tubes. LPS stimulation started within 60 minutes of blood draw. The blood was diluted with RPMI and then stimulated with LPS and incubated with different concentrations of either Rabeximod or the inventive compound. The samples were centrifuged and plasma harvested and analysed on Luminex to measure cytokines.
(§3) The release of cytokines and chemokines was investigated after stimulation of whole blood with LPS, and treatment with either the inventive compound or Rabeximod.

[1] = test system: Reactive Oxygen Species (ROS) production in PBMCs; experiment: Isoluminol assay: ROS production in PMA-activated PBMCs; assay type: cell-based, human; settings: PBMCs activated with PMA at 30 ng/ml; luminescence measured over 25 minutes; FIGS. 1 and 2
Description: Oxygen metabolism has an important role in the pathogenesis of both rheumatoid arthritis and multiple sclerosis. Reactive oxygen species (ROS) produced in the course of cellular oxidative phosphorylation, and by activated phagocytic cells during oxidative bursts, exceed the physiological buffering capacity and result in oxidative stress. The excessive production of ROS can damage protein, lipids, nucleic acids, and matrix components. ROS also serve as important intracellular signaling molecules that amplify the synovial inflammatory-proliferative response.
Frozen PBMCs, isolated from human blood (Blodcentralen, Lund, Sweden) through gradient centrifugation using Ficoll, were thawed quickly, activated with PMA at 30 ng/ml and treated with Rabeximod or the inventive compound, at different concentrations ranging from 12.5 μg/ml with 1:2 dose titrations over 8 steps. Controls included were DMSO control, PMA at 30 ng/ml and 0 μg/ml of test items. […] Cell concentration was determined using a Scepter cell counter (Millipore Merck, MA, USA) and diluted at 2×10^6 cells/ml when added to the assay plate. The luminescence signal was measured over 25 minutes.
ROS production was investigated after treatment with the inventive compound or Rabeximod at different concentrations ranging from 12.5 μg/ml with 1:2 dose titrations over 8 steps. Luminescence signal was measured over 25 minutes.

TNF-α = experiment: LPS assay: TNF-α release in whole blood; assay type: cell-based, human; settings: LPS 500 ng/ml
Description: as §1, §2, §3

IL-6 = experiment: LPS assay: IL-6 release in whole blood; assay type: cell-based, human; settings: LPS 500 ng/ml
Description: as §1, §2, §3

[2] = test system: collagen antibody induced arthritis (CAIA); experiment: Collagen antibody induced arthritis (CAIA) mouse model; assay type: in vivo, mice (DBA/1); settings: for histological (IHC) score of front paws compared with vehicle: 20 mg/kg, at study termination, score 0-3, FIG. 8; for disease severity (macroscopic arthritis score) compared with vehicle: not significant; for adverse effects from treatments: CAIA mice, any of the doses tested (5, 10, 20 mg/kg s.c.)
Description: The collagen antibody induced arthritis (CAIA) arthritis in mice is a model independent of both B and T cells. CAIA is an acute model of arthritis and the disease is induced with antibodies to collagen type II. The antibodies bind to cartilage, leading to activation of the immune system followed by recruiting of macrophages and granulocytes to the joints. After an LPS boost at day five, disease progression starts and reaches a maximum around day 15. CAIA model: Mice (DBA/1, 8-10 weeks old) were weighed at day −1 for determination of mean weight of animals in the experiment and for composition of groups. Groups were mixed within cages to avoid cage effects. The mice were injected i.v. with a cocktail of four (4) monoclonal antibodies against collagen type II (2 mg/mouse) on day 0. Day 5 the mice were injected with LPS (50 μg/mouse) i.p., in order to boost the disease. Dose preparation of test items were performed daily in corn oil. Disease was evaluated daily from day 3 in a blinded fashion using a macroscopic scoring system of the four limbs ranging from 0 to 15 (1 point for each swollen or red toe, 1 point for a swollen or red mid foot digit or knuckle, 5 points for a swollen ankle) resulting in a maximum total score of 60 for each mouse. Due to ethical restrictions, animals with a score exceeding 45 were removed from the experiment. Immunohistochemistry: Front paws from animals, in the vehicle, Rabeximod (20 mg/kg) and the inventive compound (20 mg/kg) groups, were collected at termination of the animals. The paws were immediately transferred to 4% formaldehyde containing vials for immersion fixation. The tissues were fired for 24 hours and then transferred to 70% EtOH and stored at +4° C. until staining. Paws were decalcified, paraffin embedded, sectioned and stained for hematoxylin and eosin (H&E). Resulting slides were photographed at high resolution. Images were used for morphology analysis to study cartilage destruction and infiltration of inflammatory cells in the joints. An overall assessment for the whole paw were scored (0-3), including evaluation of synovial inflammation, synovial pannus formation and bone destruction. Graphs and statistical analysis were performed using Prism 8 for Mac OS X (GraphPad Software, San Diego, CA, USA). Results are presented as mean values±SEM, if not otherwise stated. Statistics were calculated using a two-tailed non-parametric Mann-Whitney test where p<0.05 was considered significant. * represents a p-value<0.05, ** represents a p-value<0.01 and *** represents a p-value<0.001.

[3] = test system: pristane-induced arthritis (PIA); experiment: Pristane-induced arthritis (PIA) rat model; assay type: in vivo; settings: 20 mg/kg s.c. days 5, 7, 9, 11, 13, 15
Description: Pristane-induced arthritis (PIA) in rats is an animal model that mimics the criteria used for diagnosis of rheumatoid arthritis (RA). PIA is one of the most reproducible models of RA with high incidence and little variation in severity. Disease is characterized by a pronounced T cell dependent inflammatory response resulting in inflammation of peripheral joints. Disease is induced with a single injection of pristane and has a highly reproducible onset of arthritis between day 8-12. The most severe phase of arthritis is often between day 15-25 after induction and experiment can be terminated after 25-30 days. For disease induction rats were anaesthetized with IsoFlo vet (3%) and oxygen. The root of the tail was cleaned with EtOH and pristane was injected subcutaneously (s.c.) (volume 200 μl) approximately 0.5 cm from the root of the tail. A slight pressure was put on the injection site for 10 seconds after injections to prevent leakage of oil. Rats were removed from anaesthetics and the breathing was monitored until recovery was ensured. […] Disease was evaluated 3 times per week in a blinded fashion from day 10 using a macroscopic scoring system of the four limbs ranging from 0 to (1 point for each swollen or red toe, 1 point for a swollen or red mid foot digit or knuckle, […]) resulting in a maximum total score of 60 for each rat. […]

[4] = lower concentrations (from 312.5 nM, below 5000 nM)

Row | SMILES | level of IL-1β compared to Rabeximod (IL-1β; compound at 5000 nM, FIG. 5) | level of IL-1β compared to Rabeximod (IL-1β; [4]) | concentration that inhibits ROS production completely [1] [µg/mL] | melting point [°C] | level of TNF-α compared to Rabeximod (TNF-α; compound at 5000 nM, FIG. 3) | level of TNF-α compared to Rabeximod (TNF-α; [4]) | level of IL-6 compared to Rabeximod (IL-6; compound at 5000 nM, FIG. 4) | level of IL-6 compared to Rabeximod (IL-6; [4]) | histological (IHC) score of front paws compared with vehicle [2] | dose-response of arthritis severity compared to Rabeximod ([2]; 5, 10 and 20 mg/kg s.c.) | disease severity (macroscopic arthritis score) compared with vehicle ([2]; 10 and 20 mg/kg s.c. every other day from day 5, six administrations, FIG. 6) | adverse effects from treatments [2] | RA score (macroscopic arthritis score) ([3]; all study time points measured, FIG. 9) | efficacy during the most severe phase of arthritis ([3]; compared with Rabeximod) | disease severity (macroscopic arthritis score) compared with vehicle ([2]; all three doses (5, 10 and 20 mg/kg) s.c. every other day from day 5, six administrations, FIG. 7)
1 | Cc1cc2nc3c4cc(Cl)ccc4n(CC(=S)NCCN(C)C)c3nc2cc1C [inventive compound, 2-(9-chloro-2,3-dimethyl-6H-indolo[2,3-b]quinoxalin-6-yl)-N-(2-(dimethylamino)ethyl)ethanethioamide] | significantly lower | trend of reduced cytokines levels | 6.25 | 184 to 188 | significantly lower | trend of reduced cytokines levels | significantly lower | trend of reduced cytokines levels | significantly lower | clear dose-response | small decrease in disease severity | No adverse effects | slightly lower | better efficacy than Rabeximod | 
2 | Cc1cc2nc3c4cc(Cl)ccc4n(CC(=O)NCCN(C)C)c3nc2cc1C [Rabeximod, 2-(9-chloro-2,3-dimethyl-6H-indolo[2,3-b]quinoxalin-6-yl)-N-(2-(dimethylamino)ethyl)acetamide] |  |  | 12.5 |  |  |  |  |  | No significant difference |  |  | No adverse effects |  |  | small decrease in disease severity
